Tested on: PP13
Assay: PP13 level in maternal venous serum of pregnant women under tocolytic treatment, solid-phase sandwich ELISA
Assay type: in vivo, human
Details: Example V: repeated administrations, compared with normal
Method: In all experiments, PP13 was measured (blinded to pregnancy outcome) in maternal venous serum by solid-phase sandwich ELISA assay. PP13 level was calibrated according to standard curves prepared from calibrated standards of recombinant PP13. Concentrations are given in pg PP13/ml serum.
This clinical study was approved by the medical center internal review ethical committee, and all women enrolled in the study provided informed consent to allow the use of a small volume of their blood to determine the level of PP13.

COC(=O)C1=C(C)NC(C)=C(C(=O)OC)C1c1ccccc1[N+](=O)[O-] [nifedipine]
area of elevated PP13 level above normal: 5.8 times

From patent US7776557B2, “Method for monitoring tocolytic treatment” (Diagnostic Technologies Ltd., priority 2006, dated 2010)
